How the values were obtained:
ragweed = test: Test A pre-/postemergence herbicide test; type: in vivo, Ambrosia elatior
Procedure, shortened: (§1)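 Visual injury ratings, 0 = no effect, 100 = complete control, taken ~10 days after treatment against untreated greenhouse controls. Preemergence: directed soil spray onto seeded loam/sand pots. Postemergence: spray onto plants at one- to two-leaf stage, 2–10 cm tall.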

kochia = test: Test A pre-/postemergence herbicide test; type: in vivo, Kochia scoparia
Procedure, shortened: as §1

sedge, umbrella = test: Test C flooded paddy test; type: in vivo, Cyperus difformis; settings: Flood
Procedure, shortened: (§2)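 Plants grown to the 2-leaf stage; pots flooded to 3 cm above soil and compound applied directly into the paddy water, depth kept throughout. Greenhouse 13 to 15 days, then visual rating vs untreated controls on 0–100 scale (0 no effect, 100 complete control); dash means no result.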

chickweed = test: Test C postemergence herbicide test; type: in vivo, Stellaria media
Procedure, shortened: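 Greenhouse pot plants at 2 to 18 cm height (1- to 4-leaf stage) received a postemergence application of formulated test chemical. Visual ratings against untreated controls were made after 13 to 15 days, on a 0 (no effect) to 100 (complete control) scale.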

ryegrass, Italian = test: Test A pre-/postemergence herbicide test; type: in vivo, Lolium multiflorum
Procedure, shortened: as §1

galium = test: Test A postemergence herbicide test; type: in vivo, Galium aparine
Procedure, shortened: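 Plants at the one- to two-leaf stage, 2–10 cm tall, grown in loam/sand pots, received postemergence sprays of the test chemicals. After about 10 days in the greenhouse, injury was scored visually against untreated controls on a 0–100 scale (0 none, 100 complete control).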

ducksalad = test: Test C flooded paddy test; type: in vivo, Heteranthera limosa; settings: Flood
Procedure, shortened: as §2

[1] = Postemergence, 125 g ai/ha, visual rating on 0 to 100 scale (0 no effect, 100 complete control), approx. 10 days
[2] = Postemergence, 500 g ai/ha, 0 to 100 scale (0 no effect, 100 complete control)
[3] = Preemergence, 125 g ai/ha, 0 to 100 scale where 0 is no effect and 100 is complete control
[4] = preemergence, 500 g ai/ha, 0 to 100 scale, 0 is no effect and 100 is complete control
[5] = Postemergence, 125 g ai/ha, 0 to 100 scale, 0 is no effect, 100 is complete control
[6] = 125 g ai/ha, scale of 0 to 100 where 0 is no effect and 100 is complete control, 13 to 15 days
[7] = 250 g ai/ha, scale of 0 to 100 where 0 is no effect and 100 is complete control, 13 to 15 days
[8] = 16 g ai/ha, scale 0 to 100 (0 no effect, 100 complete control)
[9] = 31 g ai/ha, scale 0 to 100 (0 no effect, 100 complete control)
[10] = 62 g ai/ha, scale 0 (no effect) to 100 (complete control)
[11] = 125 g ai/ha, 0 to 100 scale, 0 is no effect, 100 is complete control
[12] = 500 g ai/ha, 0 to 100 scale (0 no effect, 100 complete control)
[13] = 62 g ai/ha, scale of 0 to 100 where 0 is no effect and 100 is complete control, 13 to 15 days

## CN1CC(c2ccc(F)cc2)C(C(=O)Nc2cccc(F)c2F)C1=O (stereo not shown) [Compound 271]
ragweed; [1]
  Plant response rating, Ragweed: 0
ragweed; [2]
  Plant response rating, Ragweed: 60
ragweed; [3]
  Plant response rating, Ragweed: 20
ragweed; [4]
  Plant response rating, Ragweed: 80
kochia; [5]
  Plant response rating, Kochia: 60
kochia; [2]
  Plant response rating, Kochia: 80
kochia; [3]
  Plant response rating, Kochia: 50
kochia; [4]
  Plant response rating, Kochia: 80
sedge, umbrella; [6]
  Plant response rating, Sedge, Umbrella: 0
sedge, umbrella; [7]
  Plant response rating, Sedge, Umbrella: 0
sedge, umbrella; 500 g ai/ha, scale 0 to 100
  Plant response rating, Sedge, Umbrella: 0
sedge, umbrella; 1000 g ai/ha, scale 0 to 100
  Plant response rating, Sedge, Umbrella: 0
chickweed; 8 g ai/ha, scale 0 to 100 (0 no effect, 100 complete control)
  Plant response rating, Chickweed: 0
chickweed; [8]
  Plant response rating, Chickweed: 5
chickweed; [9]
  Plant response rating, Chickweed: 5
chickweed; [10]
  Plant response rating, Chickweed: 50
ryegrass, Italian; [1]
  Plant response rating, Ryegrass, Italian: 0
ryegrass, Italian; [2]
  Plant response rating, Ryegrass, Italian: 40
ryegrass, Italian; [3]
  Plant response rating, Ryegrass, Italian: 0
ryegrass, Italian; [4]
  Plant response rating, Ryegrass, Italian: 30
galium; [11]
  Plant response rating, Galium: 40
galium; [12]
  Plant response rating, Galium: 70
ducksalad; [6]
  Plant response rating, Ducksalad: 70
ducksalad; [7]
  Plant response rating, Ducksalad: 100
ducksalad; 500 g ai/ha, scale 0 to 100
  Plant response rating, Ducksalad: 100
ducksalad; 1000 g ai/ha, scale 0 to 100
  Plant response rating, Ducksalad: 100

## CN1CC(c2cccc(C(F)(F)F)c2)C(C(=O)Nc2ccccc2F)C1=O (stereo not shown) [Compound 277]
ragweed; [1]
  Plant response rating, Ragweed: 30
ragweed; [2]
  Plant response rating, Ragweed: 30
ragweed; [3]
  Plant response rating, Ragweed: 20
ragweed; [4]
  Plant response rating, Ragweed: 20
kochia; [5]
  Plant response rating, Kochia: 30
kochia; [2]
  Plant response rating, Kochia: 30
kochia; [3]
  Plant response rating, Kochia: 30
kochia; [4]
  Plant response rating, Kochia: 60
sedge, umbrella; [13]
  Plant response rating, Sedge, Umbrella: 0
sedge, umbrella; [6]
  Plant response rating, Sedge, Umbrella: 0
sedge, umbrella; [7]
  Plant response rating, Sedge, Umbrella: 0
sedge, umbrella; 500 g ai/ha, scale 0 to 100
  Plant response rating, Sedge, Umbrella: 0
chickweed; [8]
  Plant response rating, Chickweed: 0
chickweed; [9]
  Plant response rating, Chickweed: 40
chickweed; [10]
  Plant response rating, Chickweed: 0
chickweed; 125 g ai/ha, scale 0 to 100 (0 no effect, 100 complete control)
  Plant response rating, Chickweed: 40
ryegrass, Italian; [1]
  Plant response rating, Ryegrass, Italian: 30
ryegrass, Italian; [2]
  Plant response rating, Ryegrass, Italian: 40
ryegrass, Italian; [3]
  Plant response rating, Ryegrass, Italian: 30
ryegrass, Italian; [4]
  Plant response rating, Ryegrass, Italian: 30
galium; [11]
  Plant response rating, Galium: 70
galium; [12]
  Plant response rating, Galium: 70
ducksalad; [13]
  Plant response rating, Ducksalad: 65
ducksalad; [6]
  Plant response rating, Ducksalad: 80
ducksalad; [7]
  Plant response rating, Ducksalad: 85
ducksalad; 500 g ai/ha, scale 0 to 100
  Plant response rating, Ducksalad: 95

From patent US10294202B2, “Pyrrolidinones as herbicides” (FMC Corporation, priority 2013, dated 2019)
